These results are taken from article PMC7557402, “Evaluation of Nucleoside Analogs as Antimicrobials Targeting Unique Enzymes in Borrelia burgdorferi” (Pathogens, 2020).

“And” between values parts separate entries of the source, which are not always exact repeats. Equal values may be shown once. Read-outs that look alike come from different tables or passages of the source.

Experiment [1] addresses T1, Bgp (Borreliella burgdorferi, UniProt Q9F952). Further details: method as in Cornell et al., 2020 [18]. Conditions: reported previously, ref Cornell et al., 2020 [18], cited from earlier work.
The test system of experiment [2] is B. burgdorferi N40. Briefly: Subculture without inhibitor after 7 days of treatment: bacteriostatic versus bactericidal. The format is cell-based, Borrelia burgdorferi. Conditions: for Inhibitor Activity: 7 days of treatment, then subculture. The protocol:
After 7 days of treatment, a 5 µL aliquot from each treatment tube (and untreated control) was added to 1 mL of BSKII-RS medium to allow any remaining viable spirochetes in the sample to grow. After incubation for 7–21 days at 33 °C, the survival of the spirochetes was determined using dark-field microscopy to observe motility and by employing bioluminescence measurements to assess vitality of the recovered culture.
To further differentiate between bacteriostatic versus bactericidal activities of MTAN inhibitors, we subcultured drug treated spirochetes in the absence of inhibitors to recover any live B. burgdorferi remaining after seven days of inhibitor treatment (summarized in Table 4). If non-motile spirochetes from treated cultures were able to grow back, the inhibitor was determined to have a bacteriostatic effect at the selected concentration. […] Spirochete survival was determined by both dark-field microscopy and bioluminescence measurements. Microscopic examination allowed assessment of motility of the spirochetes whereas bioluminescence assays assessed recovery and viability of B. burgdorferi cells. […] By comparison, a reduction in bioluminescence compared to the untreated control was observed after treatment with dEt-ImmA at a 0.4 µM or greater concentration. […] After seven days of treatment, live spirochetes were only recovered when concentrations of ≤0.4 µM were used for dEt-ImmA and IADO.

For experiment [3], the target named is T2, Pfs (Borreliella burgdorferi, UniProt O50162). Also on record: method as in Cornell et al., 2020 [18]. The settings on record: reported previously, ref Cornell et al., 2020 [18], cited from earlier work.
Experiment [4] addresses T3, MtnN (Borreliella burgdorferi, UniProt O50860). Further details: method as in Cornell et al., 2020 [18]. The settings on record: reported previously, ref Cornell et al., 2020 [18], cited from earlier work.
For experiment [5], the target named is T1, Bgp. The experiment in a line: MTAN spectrophotometric activity assay (specific activity, Km). It is filed as biochemical, Borrelia burgdorferi. Conditions: for Specific Activity: pH 7, 1 U = 1 µmol MTA hydrolyzed per minute; for % Max Specific Activity: relative to MTA as a substrate. The protocol: (§1) Recombinant MTANs were expressed and purified as previously described. Briefly, overnight 10 mL cultures of recombinant E. coli BL21(DE3) pLysS cells containing engineered pET30a expression plasmids for Bgp, MtnN or Pfs were grown at 37 °C with shaking (150 rpm) in LB broth supplemented with 50 µg/mL kanamycin and 0.5% glucose. The culture was diluted 1:50 in fresh medium and incubated at 37 °C with shaking (150 rpm) until the absorbance (600 nm) reached 0.4–0.6. Protein expression was induced with the addition of isopropyl β-D-1-thiogalactopyranoside (IPTG) to a final concentration of 1 mM and continued overnight incubation with shaking at 30 °C. Cells were harvested by centrifugation (10,000× g/15 min), and the pellet was washed once with ice-cold lysis buffer (50 mM sodium phosphate, pH = 8.0, 300 mM NaCl, 10 mM imidazole, 2mM β mercaptoethanol). Harvested cell pellets were resuspended in 10 mL fresh lysis buffer and lysed by sonication on ice using a Misonix Sonicator 300 (power setting 7, pulse 30 s, 1 min cooling with total sonication for 2.5 min). The cell lysates were centrifuged at 10,000× g for 15 min at 4 °C to remove debris, and the lysate was further filtered through a […] syringe filter to obtain a clear extract. Recombinant N-terminal hexahistidine tagged proteins were purified from the lysate using HisPur™ affinity columns (Thermo Scientific) according to the manufacturer’s specifications, and specifically eluted with 250 mM imidazole containing buffer (pH = 7). Eluted materials were analyzed by SDS-PAGE and Coomassie blue staining and found to be >95% homogeneous. Enzyme concentrations were determined using UV scans on a Cary100 spectrophotometer (Agilent) to determine the absorbance at 280 nm and applying extinction coefficients (0.1%) of 0.594 (Bgp), 0.637 (MtnN), and 0.404 (Pfs). Enzyme stocks (1 mg/mL) were prepared in 20% glycerol and stored at −80 °C.
(§2) Enzyme specific activities were determined using previously reported optimal pH conditions (50 mM sodium phosphate, pH = 7, for Bgp, MtnN; 50 mM sodium phosphate-citrate, pH = 5, for Pfs) and a spectrophotometric activity assay that measures the decrease in UV absorbance at 275 nm that occurs when MTA is cleaved to 5-methylthioribose and adenine (ε275 = 1.6 mM^−1cm^−1). The extinction coefficients for cleavage of other nucleosides were experimentally validated and found to be the same for MSeA, FSBA, and IADO (ε275 = 1.6 mM^−1cm^−1). Due to the added UV absorbance imparted by the 5′ purine group found in PurTA, the enzyme reactions were followed spectrophotometrically at 260 nm using the experimentally determined extinction coefficient of ε260 = 5.6 mM^−1cm^−1. Enzyme specific activities for MTA were generally 1–2 U/mg (1 U = µmol MTA hydrolyzed/min). The enzyme specific activities for other nucleosides were determined and reported in U/mg and as the % max specific activity (relative to MTA at 100%).
(§3) Kinetic constants have been previously reported for MTA [18]. As MSeA was also an efficient substrate for the B. burgdorferi nucleosidases, kinetic constants were determined using the activity assay described above, varying the nucleoside concentrations from 1 to 20 µM, and fitting the data on substrate-velocity plots to the Michaelis–Menten equation using GraphPad Prism (version 6):(1) Vo=Vmax[S]/Km+[S]

Experiment [6] addresses T2, Pfs. Described as above. The format is biochemical, Borrelia burgdorferi. Conditions: for Specific Activity: pH 5, 1 U = 1 µmol MTA hydrolyzed per minute; for % Max Specific Activity: relative to MTA as a substrate. The protocol: as §1, §2, §3
Experiment [7] concerns the target T3, MtnN. The experiment is described as above. It is filed as biochemical, Borrelia burgdorferi. Conditions: for Specific Activity: pH 7, 1 U = 1 µmol MTA hydrolyzed per minute; for % Max Specific Activity: relative to MTA as a substrate. The protocol: as §1, §2, §3
Experiment [8] concerns Borrelia MTANs (Bgp, MtnN, Pfs). The experiment in a line: MTAN activity/kinetics, across the nucleosidases. The format is biochemical. The protocol: as §2, §3
For the other compounds, inhibition constants (Ki’s) were determined as previously described, using an MTA concentration of 100 µM and varying the inhibitor concentration from 0 to 100 µM. The inhibited velocity (Vo’) and uninhibited velocity (Vo) values were determined, and the ratio of Vo’/Vo plotted as a function of inhibitor concentration. Ki values were calculated from these plots by fitting the data to the equation for competitive inhibition using GraphPad Prism:(2) Vo^′/Vo=Km+[S]/Km+[S]+(Km[I]/Ki)

A further experiment deals with E. coli MTAN. Further details: method as in PMID 8941345. Conditions: radioactive enzyme assay; cited from earlier work.
The subject of experiment [9] is B. burgdorferi strain N40. Briefly: microbe, parasite or virus in culture. It is filed as cell-based, Borrelia burgdorferi. The settings on record: 24 h treatment; calculated from graphs. The protocol:
B. burgdorferi N40 strain carrying a firefly luciferase gene (Bbluc), which is a derivative of the N40D10/E9 clone, was used in this study and is labeled as N40 throughout. N40 was cultured at 33 °C in Barbour-Stoenner-Kelly-II (BSK-II) medium supplemented with 6% rabbit serum (BSKII-RS). Bacterial counts were determined under 400× magnification using a hemocytometer and a dark field microscope.
The luciferase expressing B. burgdorferi N40 strain was grown to a density of ~10^8 spirochetes/mL and divided into two aliquots. One aliquot was incubated at 60 °C for 30 min to kill the spirochetes. […] The culture was mixed with the substrate by shaking in the dark, incubated at 37 °C for 5 min in a Spectramax M2 microplate reader (Molecular Devices, San Jose, CA, USA) and the bioluminescence measured. […]
Nucleosides and nucleoside analogs were prepared as sterile 1 mM stock solutions in distilled water (MSeA, IADO, FSBA, and dEt-ImmA) or in DMSO (PurTA). […] Photon emission due to luciferase activity was measured at three time points, after: (a) 24 h, (b) 72 h, and (c) 7 days of treatments to observe the effect of inhibitors on B. burgdorferi culture. At the end of each time point, bioluminescence was measured as described above. […]

The test system of experiment [10] is B. burgdorferi N40. Briefly: Dark-field microscopy of treated cultures (motility). The format is cell-based, Borrelia burgdorferi. The settings on record: 24 h treatment. The protocol: The infectious N40 B. burgdorferi culture was treated with ten 2-fold serial dilutions of ampicillin overnight. Stocks of ampicillin at 200 µg/mL to 0.385 µg/mL concentrations were used to prepare different dilutions for treatment (final 10 to 0.0195 µg/well). The bioluminescence standard curve (Figure 3) was used to calculate the percentage of physiologically compromised B. burgdorferi after treatment with different ampicillin concentration for 24 h. Ampicillin treatment affected the viability of the spirochetes (Figure 4A). […] A prolonged incubation could increase killing by ampicillin at lower doses of drug. In addition to bioluminescence, the cultures were also observed under dark-field microscopy to examine viability.

The target of experiment [11] is T2, Pfs. The settings on record: reported previously, ref Cornell et al., 2020 [18], read-out: Km (Michaelis constant); cited from earlier work.
Experiment [12] concerns the target T1, Bgp. Also on record: method as in Cornell et al., 2020 [18]. Conditions: reported previously, ref Cornell et al., 2020 [18], read-out: Km (Michaelis constant); cited from earlier work.
For experiment [13], the target named is T3, MtnN. The settings on record: reported previously, ref Cornell et al., 2020 [18], read-out: Km (Michaelis constant); cited from earlier work.
[14] abbreviates: read-out: Ki (inhibition constant).
Setting [15] is: nucleoside 1 to 20 µM, read-out: Km (Michaelis constant).

T1 sequence (Q9F952 entry or part of it): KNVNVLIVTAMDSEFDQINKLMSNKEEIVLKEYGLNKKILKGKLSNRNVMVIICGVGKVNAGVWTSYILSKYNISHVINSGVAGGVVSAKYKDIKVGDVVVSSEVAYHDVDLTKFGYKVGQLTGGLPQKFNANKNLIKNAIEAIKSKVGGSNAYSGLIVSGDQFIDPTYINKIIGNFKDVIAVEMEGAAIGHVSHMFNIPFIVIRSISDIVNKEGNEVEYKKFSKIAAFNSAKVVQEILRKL
T2 sequence (O50162 entry or part of it): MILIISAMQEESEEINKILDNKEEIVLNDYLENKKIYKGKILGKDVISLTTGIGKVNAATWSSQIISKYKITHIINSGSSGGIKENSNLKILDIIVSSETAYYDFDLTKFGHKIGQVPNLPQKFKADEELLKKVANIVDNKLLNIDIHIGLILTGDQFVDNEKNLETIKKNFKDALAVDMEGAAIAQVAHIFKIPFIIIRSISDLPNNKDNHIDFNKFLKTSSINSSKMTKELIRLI
T3 sequence (O50860 entry or part of it): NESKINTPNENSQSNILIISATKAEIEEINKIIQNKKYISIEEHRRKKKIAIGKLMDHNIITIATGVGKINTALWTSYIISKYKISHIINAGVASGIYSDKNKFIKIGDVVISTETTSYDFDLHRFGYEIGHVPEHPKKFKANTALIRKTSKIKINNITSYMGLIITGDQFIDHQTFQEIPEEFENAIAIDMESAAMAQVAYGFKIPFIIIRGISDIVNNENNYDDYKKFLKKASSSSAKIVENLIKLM

On to `CCC[C@H]1N[C@@H](c2c[nH]c3c(N)ncnc23)[C@H](O)[C@@H]1O` [dEt-ImmA, 5′-deoxy-5′-ethyl-immucillin A], for which the inhibition constant (Ki) – broadly, a measure of affinity in units of concentration, obtained from inhibition or displacement – at Bgp [1] (setting [14]) was 2.48 nM; at Pfs [3] (setting [14]), 10.5 nM; at MtnN [4] (setting [14]) it was 1.48 nM. Also, the “Ki’ (delayed onset inhibition constant)” value on Bgp [1] is 0.35 ± 0.02 nM; at Pfs [3], 0.53 ± 0.15 nM; on MtnN [4], 0.58 ± 0.05 nM. In addition, the “recovery of live spirochetes” value in the experiment on B. burgdorferi N40 [2] (2 µM and 10 µM, 21 days of subculture in media lacking MTAN inhibitors) is given as “no live spirochetes were recovered”. The “Inhibitor Activity” value in the experiment on B. burgdorferi N40 [2] (Dose: 2 µM, 10 µM) is listed as “Bactericidal”. Also, the “concentration giving a reduction in bioluminescence compared to the untreated control” value in the experiment on B. burgdorferi N40 [2] (after 12 days of incubation of subcultured bacteria) was no less than 0.4 µM. Further, the “concentrations at which live spirochetes were recovered” value in the experiment on B. burgdorferi N40 [2] (after seven days of treatment) is no more than 0.4 µM. Besides, in the experiment on B. burgdorferi N40 [2] (after seven days of treatment, bacteriostatic at lower concentrations), the “concentrations that exert bactericidal activity” value is listed as no less than 1 µM.

For the compound “5′-deoxy-5′-methylselenoadenosine [MSeA]”, the Km (in general, the concentration of substrate that gives half-maximal velocity) at Bgp [5] (setting [15]) was 1.62 µM; at Pfs [6] (setting [15]), 2.12 µM; at MtnN [7] (setting [15]), 1.5 µM; in experiment [8] (range over all three nucleosidases), 1.5 to 2.1 µM and 1.5 to 2 µM. In addition, the “Specific Activity” value amounted to 1.79 U/mg at Bgp [5], 0.27 U/mg at Pfs [6] and 1.50 U/mg on MtnN [7]. Further, the “% Max Specific Activity” value at Bgp [5] worked out at 179%; at Pfs [6], 16%; at MtnN [7], 150%. Also, in the experiment on B. burgdorferi N40 [2] (Dose: All doses (0.0032–10 µM)), the “Inhibitor Activity” value was “Bacteriostatic”. Besides, the “recovery of spirochetes (bioluminescence comparable with untreated controls)” value in the experiment on B. burgdorferi N40 [2] (all concentrations, 12 days of incubation of subcultured bacteria) is on record as “fully recovered”. The “specific activities higher than MTA” value in [8] (Bgp and MtnN) is 50–79%. Moreover, in the experiment on E. coli MTAN, the IC50 (commonly the concentration needed to halve the response being measured) is roughly 4000 nM.

In the case of `CC1(C)S[C@@H]2[C@H](NC(=O)[C@H](N)c3ccccc3)C(=O)N2[C@H]1C(=O)O` [ampicillin, reference compound], the “IC50 (percent of physiologically compromised B. burgdorferi)” value in [9] is ~ 0.31 µg/µL of culture. In addition, in the experiment on B. burgdorferi N40 [10], the “concentration at which majority of the spirochetes were non-motile with stripping of the outer membrane” value is on record as no less than 0.625 µg/well.

With “5′-deoxy-5′-methylthioadenosine [MTA, reference compound]”, the Km is 0.61 µM on Pfs [11], 0.49 µM at Bgp [12] and 9.09 µM on MtnN [13]. In addition, the “Specific Activity” value on Bgp [5] is recorded as 1.00 U/mg; at Pfs [6], 1.70 U/mg; at MtnN [7], 1.00 U/mg. The “% Max Specific Activity” value on Bgp [5], at Pfs [6] and on MtnN [7] was 100% throughout.
